The values that follow come from US8541461B2 (Astex Therapeutics Limited, priority 2005, dated 2013).

Data set [1] concerns P-glycoprotein-overexpressing subline of leukemic cell line CCRF-CEM. The following applies: read-out: IC50 against P-glycoprotein-overexpressing subline; cited from earlier work.
The next data set has as its target T1, PKA catalytic domain (Homo sapiens, UniProt P17612).
T1 construct: PKA catalytic domain from Upstate Biotechnology (#14-440); purchased Upstate Biotechnology 14-440
In words: Measurement of PKA kinase inhibitory activity (IC50). The format is biochemical. Here is the method:
A final concentration of 1 nM enzyme is used in a buffer that includes 20 mM MOPS pH 7.2, 40 μM ATP/γ^33P-ATP and 5 μM substrate. […] The reaction is allowed to proceed for 20 minutes before addition of excess orthophosphoric acid to quench activity. Unincorporated γ^33P-ATP is then separated from phosphorylated proteins on a Millipore MAPH filter plate. The plates are washed, scintillant is added and the plates are then subjected to counting on a Packard Topcount.

The target in data set [2] is T2, PKB-PIF fusion protein (protein kinase B) (Homo sapiens, UniProt P31751).
T2 construct: PIF (fusion partner); made in house
In words: Measurement of PKB kinase inhibitory activity (IC50). Format: biochemical. Here is the method:
The reaction is allowed to proceed for 20 minutes before addition of excess orthophosphoric acid to quench activity. The reaction mixture is transferred to a phosphocellulose filter plate where the peptide binds and the unused ATP is washed away. After washing, scintillant is added and the incorporated activity measured by scintillation counting.

The conditions of data set [3]: doses 10 times more than were needed for antitumour activity; cited from earlier work.
In another data set the test system is PKC. The note with it: cited from earlier work.
A further data set deals with OVCAR-3 tumour cells. The following applies: concentrations of 50 and 100 microM; cited from earlier work.
The test system of the next data set is PKG. The note with it: cited from earlier work.
For data set [4] the following is noted: clinical studies; cited from earlier work.
Data set [5] deals with Acute Promyelocytic Leukemia (APL) patients. The note with it: cited from earlier work.
For data set [6] the following is noted: antitumour agent; cited from earlier work.
[7] abbreviates: 1 nM enzyme, 40 μM ATP/γ33P-ATP, 5 μM substrate, read-out: PKA IC50.
Where [8] appears, read: 0.6 nM enzyme, 30 μM ATP/γ33P-ATP, 25 μM AKTide-2T substrate, read-out: PKB IC50.

Where two headings read alike, the source gives them in different places. Some results are limits rather than exact numbers.

T2 sequence (P31751 with tags, fused parts or gaps limits assumed): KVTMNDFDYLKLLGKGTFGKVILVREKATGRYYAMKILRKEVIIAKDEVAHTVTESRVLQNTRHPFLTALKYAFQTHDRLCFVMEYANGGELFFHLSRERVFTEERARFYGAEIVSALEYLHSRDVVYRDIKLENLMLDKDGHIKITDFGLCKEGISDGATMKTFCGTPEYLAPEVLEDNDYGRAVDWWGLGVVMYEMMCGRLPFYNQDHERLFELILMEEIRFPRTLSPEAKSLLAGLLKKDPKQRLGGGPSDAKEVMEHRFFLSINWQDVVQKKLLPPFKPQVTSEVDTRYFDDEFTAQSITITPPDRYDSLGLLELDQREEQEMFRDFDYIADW

What is called IC50 is the concentration needed to halve the response being measured. Consider `C/C1=C/C[C@@H](/C(C)=C/c2csc(C)n2)OC(=O)C[C@H](O)C(C)(C)C(=O)[C@H](C)[C@@H](O)[C@@H](C)CCC1` [desoxyepothilone B], for which the IC50 in data set [1] was 17 nM.
On to `COCCOc1ccc(C2(c3ccc(-c4cn[nH]c4)cc3)CCNCC2)cc1` [Example 67, 4-[4-(2-Methoxy-ethoxy)-phenyl]-4-[4-(1H-pyrazol-4-yl)-phenyl]-piperidine], for which the concentration for half-maximal inhibition (IC50) at PKA catalytic domain (setting [7]) is < 1000 nM; in data set [2] (setting [8]), < 5000 nM.
For the compound `CCOC(=O)c1ccc2[nH]c3c(OC)c4[nH]c5ccc(C(=O)OCC)cc5c4cc3c2c1` [SR-13668], in [3], the “adverse effects in mice” value was “no adverse effects”.
In the case of `Clc1ccc(C(Cn2ccnc2)c2ccc(-c3cn[nH]c3)cc2)cc1` (stereo not drawn) [Example 44, 4-{4-[1-(4-Chloro-phenyl)-2-imidazol-1-yl-ethyl]-phenyl}-1H-pyrazole], the IC50 (at PKA catalytic domain (setting [7]); in data set [2] (setting [8])) was < 1000 nM in each case.
For `NCC(Cc1ccccc1)c1ccc(-c2cn[nH]c2)cc1` (stereo not drawn) [Example 7, 3-Phenyl-2-[4-(1H-pyrazol-4-yl)-phenyl]-propylamine], the results for the IC50 (at PKA catalytic domain (setting [7]); in data set [2] (setting [8])) were < 15000 nM and < 5000 nM, respectively.
For `Oc1ccc(C2(c3ccc(-c4cn[nH]c4)cc3)CCNCC2)cc1` [Example 63, 4-{4-[4-(1H-Pyrazol-4-yl)-phenyl]-piperidin-4-yl}-phenol], the IC50 (at PKA catalytic domain (setting [7]); in data set [2] (setting [8])) was < 1000 nM each time.
With `O=S(=O)(NCCNCC=C(c1ccccc1)c1ccccc1)c1cccc2cnccc12` [NL-71-101], the half-maximal inhibitory concentration (IC50) in the data set on PKC was 104000 nM; with PKG, 36000 nM. Moreover, the “apoptosis in OVCAR-3 tumour cells, in which PKB is amplified” value in the data set with OVCAR-3 tumour cells is “induced apoptosis”.
One may read the half-life as how long it takes for the measured level to halve. In the case of `CCCCCCCCCCCCCCCCCCOP(=O)([O-])OC1CC[N+](C)(C)CC1` [KRX-0401, Perifosine], the half-life in [4] was ~100 h.
As to `CC1=C(/C=C/C(C)=C/C=C/C(C)=C/C(=O)O)C(C)(C)CCC1` [Tretinoin, all-trans retinoic acid], in [5], the “remissions in APL patients” value was 64-100%.
With `Cc1n[nH]c(C)c1-c1cccc(CC(N)c2ccccc2)c1` (stereo not drawn) [Example 5, 2-[3-(3,5-Dimethyl-1H-pyrazol-4-yl)-phenyl]-1-phenyl-ethylamine], the IC50 at PKA catalytic domain (setting [7]) is < 15000 nM; in data set [2] (setting [8]), < 5000 nM.
On the same counts, the results for `CNCC(C)(c1ccc(Cl)cc1)c1ccc(-c2cn[nH]c2)cc1` (stereo not drawn) [Example 82, {2-(4-Chloro-phenyl)-2-[4-(1H-pyrazol-4-yl)-phenyl]-propyl}-methyl-amine] are < 1000 nM and < 1000 nM.
The corresponding values for `CNCCC(c1ccc(F)cc1)c1ccc(-c2cn[nH]c2)cc1` (stereo not drawn) [Example 54, {3-(4-Fluoro-phenyl)-3-[4-(1H-pyrazol-4-yl)-phenyl]-propyl}-methyl-amine] are < 1000 nM and < 1000 nM.
On the same counts, the results for `CNCC(c1ccc(Oc2ccccc2)cc1)c1ccc(-c2cn[nH]c2)cc1` (stereo not drawn) [Example 45, Methyl-{2-(4-phenoxy-phenyl)-2-[4-(1H-pyrazol-4-yl)-phenyl]-ethyl}-amine] are < 1000 nM and < 5000 nM.
Turning to `CNCC(c1ccc(-c2cn[nH]c2)cc1)c1cccc(Cl)c1` (stereo not drawn) [Example 66, {2-(3-Chloro-phenyl)-2-[4-(1H-pyrazol-4-yl)-phenyl]-ethyl}-methyl-amine], the 50% inhibitory concentration (IC50) (at PKA catalytic domain (setting [7]); in [2] (setting [8])) was < 1000 nM each time.
On to `COc1ccc(C2(c3ccc(-c4cn[nH]c4)cc3)CCNCC2)cc1Cl` [Example 86, 4-(3-Chloro-4-methoxy-phenyl)-4-[4-(1H-pyrazol-4-yl)-phenyl]-piperidine], for which the 50% inhibitory concentration (IC50) (on PKA catalytic domain (setting [7]); in data set [2] (setting [8])) was < 1000 nM each time.
Regarding `NCCOC(c1ccc(Cl)cc1)c1ccc(-c2cn[nH]c2)cc1` (stereo not drawn) [Example 49, 2-{(4-Chloro-phenyl)-[4-(1H-pyrazol-4-yl)-phenyl]-methoxy}-ethylamine], the concentration for half-maximal inhibition (IC50) (at PKA catalytic domain (setting [7]); in data set [2] (setting [8])) was < 1000 nM in each case.
As for `OCCNCC(c1ccc(Cl)cc1)c1ccc(-c2cn[nH]c2)cc1` (stereo not drawn) [Example 73, 2-{2-(4-Chloro-phenyl)-2-[4-(1H-pyrazol-4-yl)-phenyl]-ethylamino}-ethanol], the concentration for half-maximal inhibition (IC50) (on PKA catalytic domain (setting [7]); in data set [2] (setting [8])) was < 1000 nM each time.
For the compound `CNCCC(Oc1cccc(Cl)c1)c1ccc(-c2cn[nH]c2)cc1` (stereo not drawn) [Example 59, {3-(3-Chloro-phenoxy)-3-[4-(1H-pyrazol-4-yl)-phenyl]-propyl}-methyl-amine], the IC50 (at PKA catalytic domain (setting [7]); in data set [2] (setting [8])) was < 1000 nM in each case.
As to `Cc1n[nH]cc1-c1ccc(C2(c3ccc(Cl)cc3)CCNCC2)cc1` [Example 78, 4-(4-Chloro-phenyl)-4-[4-(3-methyl-1H-pyrazol-4-yl)-phenyl]-piperidine], the IC50 (at PKA catalytic domain (setting [7]); in data set [2] (setting [8])) was < 1000 nM each time.
As for `CNCCC(c1ccc(-c2cn[nH]c2)cc1)c1ccc2ccccc2c1` (stereo not drawn) [Example 52, Methyl-{3-naphthalen-2-yl-3-[4-(1H-pyrazol-4-yl)-phenyl]-propyl}-amine], the half-inhibitory concentration (IC50) (on PKA catalytic domain (setting [7]); in data set [2] (setting [8])) was < 1000 nM each time.
Regarding `CNCC(c1ccc(Oc2cnccn2)cc1)c1ccc(-c2cn[nH]c2)cc1` (stereo not drawn) [Example 47, Methyl-{2-[4-(pyrazin-2-yloxy)-phenyl]-2-[4-(1H-pyrazol-4-yl)-phenyl]-ethyl}-amine], the half-maximal inhibitory concentration (IC50) (at PKA catalytic domain (setting [7]); in data set [2] (setting [8])) was < 1000 nM throughout.
`NCC(O)(c1ccc(Cl)cc1)c1ccc(-c2cn[nH]c2)cc1` (stereo not drawn) [Example 84, 2-Amino-1-(4-chloro-phenyl)-1-[4-(1H-pyrazol-4-yl)-phenyl]-ethanol]: the IC50 (on PKA catalytic domain (setting [7]); in [2] (setting [8])) was < 1000 nM throughout.
For the compound `N#Cc1ccc(C2(c3ccc(-c4cn[nH]c4)cc3)CCNCC2)cc1` [Example 81, 4-{4-[4-(1H-Pyrazol-4-yl)-phenyl]-piperidin-4-yl}-benzonitrile], the IC50 (on PKA catalytic domain (setting [7]); in data set [2] (setting [8])) was < 1000 nM in each case.
Consider `Clc1ccc(C2(c3ccc(-c4cn[nH]c4)cc3)CNCCO2)cc1` (stereo not drawn) [Example 79, 2-(4-Chloro-phenyl)-2-[4-(1H-pyrazol-4-yl)-phenyl]-morpholine], for which the IC50 (against PKA catalytic domain; in [2]) was < 1000 nM throughout.
As for `NCC(c1ccccc1)c1ccc(-c2cn[nH]c2)cc1` (stereo not drawn) [Example 1, 2-Phenyl-2-[4-(1H-pyrazol-4-yl)-phenyl]-ethylamine], the IC50 (against PKA catalytic domain; in data set [2]) was < 1000 nM throughout.
Regarding calicheamicin, in data set [6], the “potency relative to adriamycin” value is “over 1,000 times”.
